Source: patent publication US20080063628A1, “METHODS TO PROMOTE CELL DIFFERENTIATION” (priority 2006, published 2008)

Test system: amniotic fluid-derived cells
Test: Chronic trichostatin A treatment, gene expression by RT-PCR (Example 4)
Assay type: cell-based, human
Procedure: Amniotic fluid derived cells were obtained according to the methods described in Example 14. Cells were seeded into a 24-well tissue culture plate at a density of 5000/cm^2 and cultured in AMNIOMAX (Invitrogen) under standard cell culture conditions until confluent. After the cells reached confluency, sample wells were treated with either 500 nM or 1.0 μM trichostatin A diluted in DMSO and medium; control wells were treated with an equivalent concentration of DMSO. At 24 hour intervals over the three day incubation period, cultures underwent a complete medium change, and a fresh dilution of trichostatin A or DMSO was added as appropriate.
RNA samples were obtained from the treated cultures at 24 hour intervals after the initial addition of trichostatin A or DMSO. The culture medium was removed, cells were washed with PBS, and RLT lysis buffer with P-mercaptoethanol (Qiagen) was added. RNA was purified using the RNeasy Mini Kit (Qiagen); RNA quantity and quality was determined using a spectrophotometer. cDNA was made using the iScript cDNA synthesis kit (BioRad).
Expression levels of Sox17, HNF-3 beta, Pdx-1, insulin, and glucagon were determined by RT-PCR. Samples of 20 ng cDNA were used in each reaction, performed on an Applied Biosystems 7500 according to the methods described in Example 15. Data were analyzed using the accompanying software. Human pancreas cDNA was included as a control. Results were normalized against GAPDH expression levels. Basal expression of insulin and Sox-17 genes was detectable in untreated amniotic fluid-derived cells. However, expression of glucagon and Pdx-1 genes was not detectable in untreated cells by RT-PCR up to cycle 40. HNF-3 beta was not detected in untreated cells at 24-hours in culture but was weakly expressed at 48 and 72 hours culture time.
Real-time PCR amplifcation and quantitative analysis. Unless otherwise stated, all reagents were purchased from Applied Biosystems. Real-time PCR reactions were performed using the ABI PRISM™ 7500 Sequence Detection System. TAQMAN™ FAST UNIVERSAL PCR MASTER MIX™ (ABI, CA) was used with 20 ng of reverse transcribed RNA in a total reaction volume of 20 μl. Each cDNA sample was run in duplicate to allow correction of pipetting errors. Primers and FAM-labeled TAQMAN™ probes were used at concentrations of 200 nM. The level of expression for each target gene was normalized using the pre-developed Applied Biosystem's human glyceraldehyde-3-phosphate dehydrogenase (GAPDH) endogenous control kit. Primers and probes were designed using either ABI PRISM PRIMER EXPRESS™ software or a pre-developed ABI gene analysis kit. For each gene, either one of the primers or the probe were designed to be exon-boundary spanning. This eliminated the possibility of the primers/probe binding to any genomic DNA present. The primer and probe sets are listed as follows: Pdx-1 (Hs00426216), Insulin (Hs00355773), glucagon (Hs00174967), and FoxA2 (HNF 3-beta) (Hs00232764). The remaining primers were designed using the PRIMERS program (ABI, CA). After an initial 95° C. incubation for 20 sec, samples were cycled 40 times in two stages: a denaturation step at 95° C. for 3 sec, followed by an annealing/extension step at 60° C. for 30 sec.
For each primer/probe set, a cycle time value was determined as the cycle number at which the fluorescence intensity of the PCR reaction reached a specific value in the middle of the exponential region of amplification. An increase in expression of a gene corresponded to a decrease in the number of cycles required for the fluorescence intensity to reach this value.

Structure (SMILES): CC(/C=C/C(=O)NO)=C\[C@@H](C)C(=O)c1ccc(N(C)C)cc1 [trichostatin A]
- HNF-3 beta gene expression (500 nM renewed daily, 24 hours): +++ (detectable at less than 35 cycles by RT-PCR with std error less than 0.9)
- Insulin gene expression (500 nM renewed daily, 24 hours): nd (not detectable at >40 cycles by RT-PCR)
- PDX-1 gene expression (500 nM renewed daily, 24 hours): +++ (detectable at less than 35 cycles by RT-PCR with std error less than 0.9)
- Sox17 gene expression (500 nM renewed daily, 24 hours): +++ (detectable at less than 35 cycles by RT-PCR with std error less than 0.9)
- glucagon gene expression (500 nM renewed daily, 24 hours): + (detectable between 35 and 40 cycles by RT-PCR)
- HNF-3b gene expression (500 nM renewed daily, 48 hours): +++ (detectable at less than 35 cycles by RT-PCR with std error less than 0.9)
- Insulin gene expression (500 nM renewed daily, 48 hours): nd (not detectable at >40 cycles by RT-PCR)
- PDX-1 gene expression (500 nM renewed daily, 48 hours): + (detectable between 35 and 40 cycles by RT-PCR)
- Sox17 gene expression (500 nM renewed daily, 48 hours): +++ (detectable at less than 35 cycles by RT-PCR with std error less than 0.9)
- glucagon gene expression (500 nM renewed daily, 48 hours): + (detectable between 35 and 40 cycles by RT-PCR)
- HNF-3b gene expression (500 nM renewed daily, 72 hours): +++ (detectable at less than 35 cycles by RT-PCR with std error less than 0.9)
- Insulin gene expression (500 nM renewed daily, 72 hours): nd (not detectable at >40 cycles by RT-PCR)
- PDX-1 gene expression (500 nM renewed daily, 72 hours): +++ (detectable at less than 35 cycles by RT-PCR with std error less than 0.9)
- Sox17 gene expression (500 nM renewed daily, 72 hours): +++ (detectable at less than 35 cycles by RT-PCR with std error less than 0.9)
- glucagon gene expression (500 nM renewed daily, 72 hours): + (detectable between 35 and 40 cycles by RT-PCR)
- HNF-3 beta gene expression (1 μM renewed daily, 24 hours): +++ (detectable at less than 35 cycles by RT-PCR with std error less than 0.9)
- Insulin gene expression (1 μM renewed daily, 24 hours): nd (not detectable at >40 cycles by RT-PCR)
- PDX-1 gene expression (1 μM renewed daily, 24 hours): +++ (detectable at less than 35 cycles by RT-PCR with std error less than 0.9)
- Sox17 gene expression (1 μM renewed daily, 24 hours): +++ (detectable at less than 35 cycles by RT-PCR with std error less than 0.9)
- glucagon gene expression (1 μM renewed daily, 24 hours): +++ (detectable at less than 35 cycles by RT-PCR with std error less than 0.9)
- HNF-3b gene expression (1 μM renewed daily, 48 hours): +++ (detectable at less than 35 cycles by RT-PCR with std error less than 0.9)
- Insulin gene expression (1 μM renewed daily, 48 hours): nd (not detectable at >40 cycles by RT-PCR)
- PDX-1 gene expression (1 μM renewed daily, 48 hours): +++ (detectable at less than 35 cycles by RT-PCR with std error less than 0.9)
- Sox17 gene expression (1 μM renewed daily, 48 hours): +++ (detectable at less than 35 cycles by RT-PCR with std error less than 0.9)
- glucagon gene expression (1 μM renewed daily, 48 hours): ++ (detectable at less than 35 cycles by RT-PCR with std error greater than 0.9)
- HNF-3b gene expression (1 μM renewed daily, 72 hours): +++ (detectable at less than 35 cycles by RT-PCR with std error less than 0.9)
- Insulin gene expression (1 μM renewed daily, 72 hours): nd (not detectable at >40 cycles by RT-PCR)
- PDX-1 gene expression (1 μM renewed daily, 72 hours): +++ (detectable at less than 35 cycles by RT-PCR with std error less than 0.9)
- Sox17 gene expression (1 μM renewed daily, 72 hours): +++ (detectable at less than 35 cycles by RT-PCR with std error less than 0.9)
- glucagon gene expression (1 μM renewed daily, 72 hours): +++ (detectable at less than 35 cycles by RT-PCR with std error less than 0.9)
